Experimental data published in PubChem BioAssay AID1963980 (Molecular Pharmacology Branch, DTP, NCI, 2024).

Tested on: 475296-252-R-J1-PDC spheroid viability
Assay: Anticancer human tumor 475296-252-R-J1-PDC patient-derived rectal carcinoma cell line growth inhibition [PI3K]
Settings: spheroids with HUVEC and MSC; for IC50: curve of first compound; for viability, T/C: stronger effect = lower value
Method in brief: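 Multi-cell spheroids combine tumor cells with HUVEC and human MSCs, treated with targeted agents alone or with inavolisib, alpelisib, duvelisib or copanlisib. Concentrations fall in half-log steps from at or near clinical Cmax, or from 10 microM where Cmax is unknown; viability read-out.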

[1] = second compound 0.00316 µM, first compound 0.0316 µM
[2] = second compound 0.00316 µM, first compound 0.1 µM
[3] = second compound 0.00316 µM, first compound 0.316 µM
[4] = second compound 0.00316 µM, first compound 1 µM
[5] = second compound 0.00316 µM, first compound 3.16 µM
[6] = second compound 0.00316 µM, first compound 10 µM
[7] = second compound 0.01 µM, first compound 0.0316 µM
[8] = second compound 0.01 µM, first compound 0.1 µM
[9] = second compound 0.01 µM, first compound 0.316 µM
[10] = second compound 0.01 µM, first compound 1 µM
[11] = second compound 0.01 µM, first compound 3.16 µM
[12] = second compound 0.01 µM, first compound 10 µM
[13] = second compound 0.0316 µM, first compound 0.0316 µM
[14] = second compound 0.0316 µM, first compound 0.1 µM
[15] = second compound 0.0316 µM, first compound 0.316 µM
[16] = second compound 0.0316 µM, first compound 1 µM
[17] = second compound 0.0316 µM, first compound 3.16 µM
[18] = second compound 0.0316 µM, first compound 10 µM
[19] = second compound 0.1 µM, first compound 0.0316 µM
[20] = second compound 0.1 µM, first compound 0.1 µM
[21] = second compound 0.1 µM, first compound 0.316 µM
[22] = second compound 0.1 µM, first compound 1 µM
[23] = second compound 0.1 µM, first compound 3.16 µM
[24] = second compound 0.1 µM, first compound 10 µM
[25] = second compound 0.316 µM, first compound 0.0316 µM
[26] = second compound 0.316 µM, first compound 0.1 µM
[27] = second compound 0.316 µM, first compound 0.316 µM
[28] = second compound 0.316 µM, first compound 1 µM
[29] = second compound 0.316 µM, first compound 3.16 µM
[30] = second compound 0.316 µM, first compound 10 µM
[31] = second compound 1 µM, first compound 0.0316 µM
[32] = second compound 1 µM, first compound 0.1 µM
[33] = second compound 1 µM, first compound 0.316 µM
[34] = second compound 1 µM, first compound 1 µM
[35] = second compound 1 µM, first compound 3.16 µM
[36] = second compound 1 µM, first compound 10 µM
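Note: spheroids exposed to agents for seven days before readout.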

SMILES: CC1(C)CCC(CN2CCN(c3ccc(C(=O)NS(=O)(=O)c4ccc(NCC5CCOCC5)c([N+](=O)[O-])c4)c(Oc4cnc5[nH]ccc5c4)c3)CC2)=C(c2ccc(Cl)cc2)C1 + COc1c(OCCCN2CCOCC2)ccc2c3n(c(=NC(=O)c4cnc(N)nc4)nc12)CCN3
- IC50 (second compound 0.00316 µM): > 10 µM
- IC50 (second compound 0.01 µM): > 10 µM
- IC50 (second compound 0.0316 µM): > 10 µM
- IC50 (second compound 0.1 µM): > 10 µM
- IC50 (second compound 0.316 µM): > 10 µM
- IC50 (second compound 1 µM): 5.62 µM
- viability, T/C [1]: 107%
- viability, T/C [2]: 85.6%
- viability, T/C [3]: 111%
- viability, T/C [4]: 86.3%
- viability, T/C [5]: 105%
- viability, T/C [6]: 68.7%
- viability, T/C [7]: 96.2%
- viability, T/C [8]: 97.9%
- viability, T/C [9]: 87.5%
- viability, T/C [10]: 104%
- viability, T/C [11]: 86%
- viability, T/C [12]: 67.3%
- viability, T/C [13]: 98.6%
- viability, T/C [14]: 85.8%
- viability, T/C [15]: 82.5%
- viability, T/C [16]: 93.5%
- viability, T/C [17]: 79.8%
- viability, T/C [18]: 64%
- viability, T/C [19]: 91.8%
- viability, T/C [20]: 80.7%
- viability, T/C [21]: 78%
- viability, T/C [22]: 85%
- viability, T/C [23]: 70.6%
- viability, T/C [24]: 66.7%
- viability, T/C [25]: 67%
- viability, T/C [26]: 72.3%
- viability, T/C [27]: 63.7%
- viability, T/C [28]: 62%
- viability, T/C [29]: 66.8%
- viability, T/C [30]: 59.4%
- viability, T/C [31]: 63.2%
- viability, T/C [32]: 61.9%
- viability, T/C [33]: 58.8%
- viability, T/C [34]: 57.3%
- viability, T/C [35]: 62.4%
- viability, T/C [36]: 39.5%

SMILES: C[C@@H](NC(=O)c1ncnc(N)c1Cl)c1ncc(C(=O)Nc2cc(C(F)(F)F)c(Cl)cn2)s1 + COc1c(OCCCN2CCOCC2)ccc2c3n(c(=NC(=O)c4cnc(N)nc4)nc12)CCN3
- IC50 (second compound 0.00316 µM): > 10 µM
- IC50 (second compound 0.01 µM): > 10 µM
- IC50 (second compound 0.0316 µM): > 10 µM
- IC50 (second compound 0.1 µM): 7.87 µM
- IC50 (second compound 0.316 µM): 9.5 µM
- IC50 (second compound 1 µM): 3.76 µM
- viability, T/C [1]: 82.4%
- viability, T/C [2]: 88%
- viability, T/C [3]: 94.8%
- viability, T/C [4]: 101%
- viability, T/C [5]: 94.5%
- viability, T/C [6]: 79.3%
- viability, T/C [7]: 88%
- viability, T/C [8]: 86.8%
- viability, T/C [9]: 90.4%
- viability, T/C [10]: 85.9%
- viability, T/C [11]: 101%
- viability, T/C [12]: 67.3%
- viability, T/C [13]: 78.6%
- viability, T/C [14]: 83.7%
- viability, T/C [15]: 79.7%
- viability, T/C [16]: 78.1%
- viability, T/C [17]: 80.8%
- viability, T/C [18]: 61%
- viability, T/C [19]: 74.1%
- viability, T/C [20]: 74.1%
- viability, T/C [21]: 83.5%
- viability, T/C [22]: 69.3%
- viability, T/C [23]: 80.1%
- viability, T/C [24]: 43.3%
- viability, T/C [25]: 62.5%
- viability, T/C [26]: 61.8%
- viability, T/C [27]: 53.9%
- viability, T/C [28]: 67.4%
- viability, T/C [29]: 69%
- viability, T/C [30]: 32.6%
- viability, T/C [31]: 61.9%
- viability, T/C [32]: 58.6%
- viability, T/C [33]: 74.4%
- viability, T/C [34]: 58.9%
- viability, T/C [35]: 54.9%
- viability, T/C [36]: 23.8%

SMILES: Cn1ncnc1[C@H]1c2n[nH]c(=O)c3cc(F)cc(c23)N[C@@H]1c1ccc(F)cc1 + COc1c(OCCCN2CCOCC2)ccc2c3n(c(=NC(=O)c4cnc(N)nc4)nc12)CCN3
- IC50 (second compound 0.00316 µM): > 0.1 µM
- IC50 (second compound 0.01 µM): > 0.1 µM
- IC50 (second compound 0.0316 µM): > 0.1 µM
- IC50 (second compound 0.1 µM): > 0.1 µM
- IC50 (second compound 0.316 µM): > 0.1 µM
- IC50 (second compound 1 µM): > 0.1 µM
- viability, T/C (second compound 0.00316 µM, first compound 0.000316 µM): 91.6%
- viability, T/C (second compound 0.00316 µM, first compound 0.001 µM): 99%
- viability, T/C (second compound 0.00316 µM, first compound 0.00316 µM): 115%
- viability, T/C (second compound 0.00316 µM, first compound 0.01 µM): 99.5%
- viability, T/C [1]: 116%
- viability, T/C [2]: 109%
- viability, T/C (second compound 0.01 µM, first compound 0.000316 µM): 95.5%
- viability, T/C (second compound 0.01 µM, first compound 0.001 µM): 104%
- viability, T/C (second compound 0.01 µM, first compound 0.00316 µM): 108%
- viability, T/C (second compound 0.01 µM, first compound 0.01 µM): 99.4%
- viability, T/C [7]: 116%
- viability, T/C [8]: 94.7%
- viability, T/C (second compound 0.0316 µM, first compound 0.000316 µM): 93.1%
- viability, T/C (second compound 0.0316 µM, first compound 0.001 µM): 98%
- viability, T/C (second compound 0.0316 µM, first compound 0.00316 µM): 106%
- viability, T/C (second compound 0.0316 µM, first compound 0.01 µM): 99.2%
- viability, T/C [13]: 94.2%
- viability, T/C [14]: 93.3%
- viability, T/C (second compound 0.1 µM, first compound 0.000316 µM): 85.3%
- viability, T/C (second compound 0.1 µM, first compound 0.001 µM): 99.1%
- viability, T/C (second compound 0.1 µM, first compound 0.00316 µM): 94.8%
- viability, T/C (second compound 0.1 µM, first compound 0.01 µM): 75.1%
- viability, T/C [19]: 85%
- viability, T/C [20]: 75.8%
- viability, T/C (second compound 0.316 µM, first compound 0.000316 µM): 82.4%
- viability, T/C (second compound 0.316 µM, first compound 0.001 µM): 73.1%
- viability, T/C (second compound 0.316 µM, first compound 0.00316 µM): 71.7%
- viability, T/C (second compound 0.316 µM, first compound 0.01 µM): 86.1%
- viability, T/C [25]: 67.8%
- viability, T/C [26]: 75.7%
- viability, T/C (second compound 1 µM, first compound 0.000316 µM): 65.4%
- viability, T/C (second compound 1 µM, first compound 0.001 µM): 65%
- viability, T/C (second compound 1 µM, first compound 0.00316 µM): 63.5%
- viability, T/C (second compound 1 µM, first compound 0.01 µM): 70.8%
- viability, T/C [31]: 70.8%
- viability, T/C [32]: 55.4%
